Usually MIC stands for the least concentration at which growth counts as inhibited.

Converted amounts (≈) assume the structure as drawn.

Results on three molecules are retold here after paper PMC8589628, “Characterization and Antimicrobial Studies of Iturin-Like and Bogorol-Like Lipopeptides From Brevibacillus spp. Strains GI9 and SKDU10” (Frontiers in Microbiology, 2021).

One series deals with F. moniliforme MTCC 158. The experiment in a line: MIC against phytopathogenic fungi, 96-well microtiter plate method. The following applies: Fusarium verticillioides, MTCC158, PDB. In kind it is cell-based, Fusarium moniliforme. How it is done:
(§1) The antimicrobial activity of HPLC purified compounds was determined against various test strains including S. aureus MTCC 1430, Vibrio cholera MTCC 3904, Bacillus subtilis MTCC 121, Listeria monocytogenes MTCC 839, C. albicans MTCC 183, C. albicans MTCC 1637, C. albicans MTCC 227, C. tropicalis MTCC 184, C. glabrata MTCC 3019, and C. inconspicua MTCC 1074. Antimicrobial activity was also tested against clinical Candida strains and phytopathogenic fungi viz. Fusarium moniliforme MTCC 158, Alternaria brassicicola MTCC 2102 and Colletotrichum acutatum MTCC 1037. Bacterial and Candida test strains were grown in NB and yeast malt broth (YMB), respectively. Fungal test strains were grown in potato dextrose broth (PDB). Minimum inhibitory concentrations (MICs) of purified compounds were evaluated against test organisms by using a microtiter plate dilution assay. Mid-log-phase test strains (5 × 10^5 CFU/ml) were incubated in a 96-well plate with different concentrations of the lipopeptides for 24–48 h at 37°C (final volume of 200 μl). OD was measured at 600 nm after 24 and 48 h for bacteria and yeast, respectively, using an ELISA microplate reader (Thermo Scientific, United States). MIC against phytopathogenic fungi was determined using the 96-well microtiter plate method ([Sharma et al., 2020]).

The subject of the next series is C. albicans MTCC 1637. Kind of series: MIC, microtiter plate dilution assay. In kind it is cell-based, Candida albicans. Set-up: key to MIC value: R = resistant. The settings on record: 5 × 10^5 CFU/ml, 37°C, OD 600 nm after 48 h. The procedure:
as §1

The subject of another series is C. albicans MTCC 227. The experiment in a line: MIC, microtiter plate dilution assay. In kind it is cell-based, Candida albicans. More on the design: key to MIC value: R = resistant. The following applies: 5 × 10^5 CFU/ml, 37°C, OD 600 nm after 48 h. The procedure: as §1
In another series the test system is C. auris 470126. The experiment in a line: MIC, microtiter plate dilution assay, clinical strain. Format: cell-based. More on the design: key to MIC value: R = resistant. The following applies: YMB, 37°C, OD 600 nm after 48 h. How it is done: (§2) Brevibacillus sp. strains GI-9 and SKDU10 were known to produce class IId bacteriocins identified as laterosporulins a ([Singh et al., 2012]; [Baindara et al., 2016]). Both strains were grown on nutrient agar (NA, Himedia, India). All test strains used in this study were obtained from Microbial Type Culture Collection and Gene bank (MTCC), Chandigarh, India. Clinical Candida strains were obtained from the National Culture Collection of Pathogenic Fungi (NCCPF), PGIMER, Chandigarh, India, and all strains were grown on recommended media.
as §1

Another series deals with C. kefyr 410004. Described as above. Format: cell-based. More on the design: key to MIC value: R = resistant. The following applies: YMB, 37°C, OD 600 nm after 48 h. The procedure: as §2, §1
The subject of another series is C. haemulonii 470125. The series is described as above. In kind it is cell-based. Set-up: key to MIC value: R = resistant. The following applies: YMB, 37°C, OD 600 nm after 48 h. The procedure: as §2, §1
For another series, the system named is C. tropicalis 420024. The description is as above. In kind it is cell-based. Set-up: key to MIC value: R = resistant. The following applies: YMB, 37°C, OD 600 nm after 48 h. How it is done:
as §2, §1

The subject of a further series is C. albicans MTCC 183. The experiment in a line: MIC, microtiter plate dilution assay. Format: cell-based, Candida albicans. The settings on record: Candida albicans, MTCC183, YMB, 5 × 10^5 CFU/ml, 37°C, OD 600 nm after 48 h. How it is done:
as §1

A further series concerns C. haemulonii MTCC 2766. The experiment in a line: MIC, microtiter plate dilution assay. In kind it is cell-based. The following applies: 5 × 10^5 CFU/ml, 37°C, OD 600 nm after 48 h. Set-up: key to MIC value: R = resistant. How it is done: as §1
The subject of the next series is C. tropicalis MTCC 184. Kind of series: MIC, microtiter plate dilution assay. Format: cell-based. Set-up: key to MIC value: R = resistant. The following applies: 5 × 10^5 CFU/ml, 37°C, OD 600 nm after 48 h. How it is done:
as §1

In another series the test system is C. glabrata MTCC 3019. The experiment in a line: MIC, microtiter plate dilution assay. Format: cell-based. More on the design: key to MIC value: R = resistant. The following applies: 5 × 10^5 CFU/ml, 37°C, OD 600 nm after 48 h. How it is done: as §1
A further series concerns C. inconspicua MTCC 1074. The experiment in a line: MIC, microtiter plate dilution assay. In kind it is cell-based. The settings on record: Pichia inconspicua, MTCC1074, YMB, 5 × 10^5 CFU/ml, 37°C, OD 600 nm after 48 h. The procedure:
as §1

Series [1] concerns A. brassicicola MTCC 2102. The experiment in a line: MIC against phytopathogenic fungi, 96-well microtiter plate method. Format: cell-based, Alternaria brassicicola. More on the design: key to MIC value: R = resistant. The procedure:
as §1

The subject of another series is C. albicans 400054. Kind of series: MIC, microtiter plate dilution assay, clinical strain. More on the design: key to MIC value: R = resistant. The following applies: YMB, 37°C, OD 600 nm after 48 h. In kind it is cell-based, Candida albicans. How it is done:
as §2, §1

The subject of a further series is C. acutatum MTCC1037. Kind of series: MIC against phytopathogenic fungi, 96-well microtiter plate method. Format: cell-based, Colletotrichum acutatum. More on the design: key: R = resistant. The settings on record: PDB. The procedure:
as §1

In a further series the test system is C. krusei 440009. Kind of series: MIC, microtiter plate dilution assay, clinical strain. Format: cell-based. The settings on record: Pichia kudriavzevii, YMB, 37°C, OD 600 nm after 48 h. How it is done: as §2, §1
The test system of the next series is C. parapsilosis 450030. The series is described as above. In kind it is cell-based. The settings on record: Lodderomyces parapsilosis, YMB, 37°C, OD 600 nm after 48 h. The procedure: as §2, §1
The next series concerns C. rugosa 470141. Described as above. Format: cell-based. The settings on record: Diutina rugosa, YMB, 37°C, OD 600 nm after 48 h. How it is done: as §2, §1
For series [2], the system named is Vigna radiata (Moong) seeds. Kind of series: Seed germination-based phytotoxicity assay. The settings on record: Vigna radiata seeds soaked in 0.1% solution (positive control), up to 3 days. The procedure:
For hemolysis assay rabbit erythrocytes were treated with different concentrations of purified active antimicrobial compounds ranging from 250 to 750 μg/ml and incubated at 37°C for 24 h in a 5% CO2 incubator. The release of hemoglobin was monitored by measuring the absorbance at 540 nm in a microplate reader. PBS and 0.1% Triton X-100 were used as controls for 0 and 100% hemolysis, respectively ([Singh et al., 2021]). For phytotoxicity assay, sterilized Vigna radiata (Moong) seeds were treated with different concentrations of purified antimicrobial compounds (250–750 μg/ml). Seeds soaked in water and 0.1% mercuric chloride were used as negative and positive control, respectively. Seeds germination was observed up to 3 days of incubation.

Consider `C[C@@H]1[C@H](O)[C@@H](C)/C=C/C=C/C=C/C=C/C=C/C=C/C=C/[C@H](O[C@@H]2O[C@H](C)[C@@H](O)[C@H](N)[C@@H]2O)C[C@@H]2O[C@](O)(C[C@@H](O)C[C@@H](O)[C@H](O)CC[C@@H](O)C[C@@H](O)CC(=O)O[C@H]1C)C[C@H](O)[C@H]2C(=O)O` [Amphotericin B], for which the minimum inhibitory concentration (MIC) against F. moniliforme MTCC 158 was found to be 50 µg/mL (≈ 54.1 µM); against C. albicans MTCC 1637 (Candida albicans, MTCC1637, YMB), 5 µg/mL (≈ 5.41 µM); with C. albicans MTCC 227 (Candida albicans, MTCC227, YMB) it was 5 µg/mL (≈ 5.41 µM); with C. auris 470126 (Candidozyma auris), 5 µg/mL (≈ 5.41 µM); against C. kefyr 410004 (Kluyveromyces marxianus), 50 µg/mL (≈ 54.1 µM); in the series on C. haemulonii 470125 (Candidozyma haemuli), 50 µg/mL (≈ 54.1 µM). The MIC in the series on C. tropicalis 420024 (Candida tropicalis) came out at 50 µg/mL (≈ 54.1 µM); against C. albicans MTCC 183 it was 5 µg/mL (≈ 5.41 µM); against C. haemulonii MTCC 2766 (Candidozyma haemuli, MTCC2766, YMB) it was 100 µg/mL (≈ 108 µM); against C. tropicalis MTCC 184 (Candida tropicalis, MTCC184, YMB), 35 µg/mL (≈ 37.9 µM); with C. glabrata MTCC 3019 (Nakaseomyces glabratus, MTCC3019, YMB) it was 25 µg/mL (≈ 27.1 µM); in the series with C. inconspicua MTCC 1074, 10 µg/mL (≈ 10.8 µM). Moreover, the minimal inhibitory concentration (MIC) in series [1] (Alternaria brassicicola, MTCC2102, PDB) came out at 50 µg/mL (≈ 54.1 µM); in the series on C. albicans 400054 (Candida albicans) it was 5 µg/mL (≈ 5.41 µM); against C. krusei 440009, 5 µg/mL (≈ 5.41 µM); in the series on C. parapsilosis 450030, 50 µg/mL (≈ 54.1 µM); against C. rugosa 470141, 5 µg/mL (≈ 5.41 µM). In addition, the MIC value entry in the series with C. acutatum MTCC1037 is recorded as “R”.
Consider `OC(Cn1cncn1)(Cn1cncn1)c1ccc(F)cc1F` [Fluconazole], for which the minimal inhibitory concentration (MIC) is 10 µg/mL (≈ 32.7 µM) in the series with F. moniliforme MTCC 158; 50 µg/mL (≈ 163 µM) with C. inconspicua MTCC 1074; 1 µg/mL (≈ 3.27 µM) with C. krusei 440009; 10 µg/mL (≈ 32.7 µM) in the series on C. parapsilosis 450030; 5 µg/mL (≈ 16.3 µM) in the series with C. rugosa 470141. In addition, the MIC value result against C. albicans MTCC 1637 (YMB), in the series with C. albicans MTCC 227 (YMB), against C. auris 470126, with C. kefyr 410004, in the series on C. haemulonii 470125 and with C. tropicalis 420024 was “R” each time. Moreover, the MIC value result (with C. haemulonii MTCC 2766 (YMB); in the series with C. tropicalis MTCC 184 (YMB); against C. glabrata MTCC 3019 (YMB); in [1] (PDB); against C. albicans 400054; in the series on C. acutatum MTCC1037) was “R” throughout.
As to `[Cl][Hg][Cl]` [mercuric chloride], the Seed germination entry in series [2] is given as “No germination”.
